Several values for one entry are separate records, joined by “and”; a condition that tells them apart may be missing. Equal values may be shown once. Numbers after ± are expanded uncertainties.
Conditions: Liquid, Transpiration method

COC(=O)C(C)=O [methyl 2-oxopropanoate]
vapor or sublimation pressure (279.4 K): 0.177 ± 0.011 kPa and 0.1749 ± 0.011 kPa
vapor or sublimation pressure (280.9 K): 0.1942 ± 0.012 kPa
vapor or sublimation pressure (282.4 K): 0.2279 ± 0.015 kPa
vapor or sublimation pressure (283.8 K): 0.2536 ± 0.016 kPa
vapor or sublimation pressure (286.2 K): 0.2982 ± 0.019 kPa and 0.293 ± 0.018 kPa
vapor or sublimation pressure (287 K): 0.3042 ± 0.019 kPa
vapor or sublimation pressure (289.2 K): 0.3569 ± 0.023 kPa
vapor or sublimation pressure (291 K): 0.426 ± 0.027 kPa
vapor or sublimation pressure (294.9 K): 0.527 ± 0.033 kPa
vapor or sublimation pressure (298.9 K): 0.706 ± 0.045 kPa
vapor or sublimation pressure (302.9 K): 0.919 ± 0.058 kPa
vapor or sublimation pressure (307.8 K): 1.227 ± 0.077 kPa

CC(=O)C(=O)O [2-oxopropanoic acid]
vapor or sublimation pressure (308.2 K): 0.2899 ± 0.018 kPa
vapor or sublimation pressure (313.3 K): 0.3753 ± 0.023 kPa and 0.3771 ± 0.023 kPa
vapor or sublimation pressure (315.9 K): 0.434 ± 0.027 kPa
vapor or sublimation pressure (316.8 K): 0.45 ± 0.028 kPa
vapor or sublimation pressure (318.3 K): 0.509 ± 0.032 kPa
vapor or sublimation pressure (320.9 K): 0.599 ± 0.038 kPa and 0.597 ± 0.037 kPa
vapor or sublimation pressure (325.8 K): 0.798 ± 0.05 kPa
vapor or sublimation pressure (330.8 K): 1.092 ± 0.068 kPa
vapor or sublimation pressure (333.2 K): 1.274 ± 0.08 kPa
vapor or sublimation pressure (336.4 K): 1.519 ± 0.094 kPa

— the NIST ThermoML archive (doi:10.1016/j.tca.2018.05.009)
